Values belong to the compound of their own block, whether it stands above or below them.
Legend:
[1] = test system: keratinocyte cultures; conditions: cited from earlier work
[2] = molecular target: T1, hyaluronidase (HYAL, Sigma type IV-S, H3884) (Bos taurus, UniProt Q2YDK3); test: Action on the activity of hyaluronidase (remaining hyaluronic acid determined photometrically); format: biochemical; conditions: for Hyaluronidase activity: control (no LU) = 100
T1 construct: hyaluronidase (HYAL, Sigma type IV-S, H3884)
T1 sequence (Q2YDK3 1-553): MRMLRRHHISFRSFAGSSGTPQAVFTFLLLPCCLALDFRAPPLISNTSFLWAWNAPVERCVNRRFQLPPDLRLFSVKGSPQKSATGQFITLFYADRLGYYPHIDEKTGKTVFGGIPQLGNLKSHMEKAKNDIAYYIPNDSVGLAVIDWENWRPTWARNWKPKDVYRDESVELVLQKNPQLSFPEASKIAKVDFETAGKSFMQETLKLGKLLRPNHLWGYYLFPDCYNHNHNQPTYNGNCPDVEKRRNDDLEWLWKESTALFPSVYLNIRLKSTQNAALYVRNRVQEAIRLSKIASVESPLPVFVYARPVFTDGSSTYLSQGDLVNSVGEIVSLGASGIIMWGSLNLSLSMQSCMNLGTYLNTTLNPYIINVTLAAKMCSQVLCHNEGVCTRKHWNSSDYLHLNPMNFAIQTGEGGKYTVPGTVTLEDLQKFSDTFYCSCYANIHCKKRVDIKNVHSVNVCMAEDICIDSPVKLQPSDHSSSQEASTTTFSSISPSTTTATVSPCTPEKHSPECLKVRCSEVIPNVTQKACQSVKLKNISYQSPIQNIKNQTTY
Description: 5,7-Dihydroxy-2-methylchromen-4-one in phosphate buffer (0.1 M) is pre-incubated with hyaluronidase (HYAL, Sigma type IV-S, H3884; 1 mg/l in phosphate buffer (0.1 M)). Hyaluronic acid (HA, Sigma H-1876; 1.2 mg/ml) is subsequently added, and the mixture is incubated at 37° C. for 1 hour. The remaining hyaluronic acid (HA) is subsequently precipitated using serum albumen (BSA, Sigma A7888) and determined photometrically.

[3] = test system: PGE2 release from human keratinocytes (cell line NCTC R13); test: Antiinflammatory properties (PGE2 assay): PMA-induced PGE2 release, ELISA; format: cell-based; conditions: for PGE2: PMA-stimulated, 24 h; for PGE2 release % compared with control: control (only PMA) = 100
Description: Human keratinocytes of the cell line NCTC R13 are pre-cultivated for 24 hours at 37° C. in a 5% CO2 atmosphere with DMEM culture medium (Life Technologies). The cells are treated with LU for 24 hours, and the culture medium is then removed. A fresh culture medium containing the inflammation-triggering active ingredient phorbol myristate acetate (PMA; […]) and LU is added. After incubation for 24 hours, the culture medium is collected and analysed. By means of an ELISA DE0100 kit (R&D Systems), the release is used in order to investigate the release of the inflammation marker prostaglandin E2 (PGE2) (Table).

[4] = molecular target: T2, elastase (from human leukocytes) (Homo sapiens, UniProt P08246); test: Action on the activity of leukocyte elastase (fluorescence, elastin substrate); format: biochemical
T2 construct: elastase (from human leukocytes; Sigma E8140; 100 mU/well); purchased Sigma E8140; host or cells: human leukocytes
T2 sequence (P08246 30-267): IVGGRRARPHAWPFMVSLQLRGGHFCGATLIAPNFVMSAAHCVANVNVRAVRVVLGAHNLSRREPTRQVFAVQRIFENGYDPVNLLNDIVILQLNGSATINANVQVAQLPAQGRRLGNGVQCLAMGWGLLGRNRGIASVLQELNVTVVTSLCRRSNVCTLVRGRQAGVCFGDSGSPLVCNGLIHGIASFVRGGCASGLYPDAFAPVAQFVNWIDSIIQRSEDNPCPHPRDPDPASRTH
Description: 5,7-Dihydroxy-2-methylchromen-4-one in TRIS buffer (500 mM) is incubated for 10 minutes on ice with elastase (from human leukocytes; Sigma E8140; 100 mU/well). 5 μg/well of elastin are subsequently added, and the plates are incubated at 37° C. for 2 hours. The fluorescence is determined using a Spectromax Gemini spectrometer (Molecular Devices) at λex=485 nm and λem=538 nm.

[5] = over the entire pH range; cited from earlier work

Structure (SMILES): O=C1CCOc2ccccc21 [Example 4-chromanone, 4-chromanone]
cell differentiation [1]: promotes cell differentiation
lipid production [1]: stimulates lipid production

inhibition at 3125 µM ([2]; 3.125 mM LU): 9%
Hyaluronidase activity ([2]; 3.125 mM LU): 91
inhibition at 6250 µM ([2]; 6.25 mM LU): 19%
Hyaluronidase activity ([2]; 6.25 mM LU): 81
inhibition at 12500 µM ([2]; 12.5 mM LU): 37%
Hyaluronidase activity ([2]; 12.5 mM LU): 63
inhibition at 25000 µM ([2]; 25 mM LU): 63%
Hyaluronidase activity ([2]; 25 mM LU): 37
% quenching ([4]; 40 μM LU): 0%
Fluorescence intensity ([4]; 40 μM LU): 2195.9
inhibition at 40 µM ([4]; 40 μM LU): 10%
remaining activity at 40 µM ([4]; 40 μM LU, neg. control = 100, read-out: Elastase activity % compared with control): 90%
% quenching ([4]; 200 μM LU): 19%
Fluorescence intensity ([4]; 200 μM LU): 1096.4
inhibition at 200 µM ([4]; 200 μM LU): 45%
remaining activity at 200 µM ([4]; 200 μM LU, neg. control = 100, read-out: Elastase activity % compared with control): 45%
Structure (SMILES): Cc1cc(=O)c2c(O)cc(O)cc2o1 [LU, 5,7-dihydroxy-2-methylchromen-4-one]
Inhibition of hyaluronidase activity (in words) ([2]; in the doses investigated (3.125-25 mM)): clear inhibition of hyaluronidase activity
PGE2 ([3]; 0.008 mM LU): 340.62 ng/mL
PGE2 release % compared with control ([3]; 0.008 mM LU): 113%
PGE2 ([3]; 0.04 mM LU): 226.39 ng/mL
PGE2 release % compared with control ([3]; 0.04 mM LU): 75%
PGE2 ([3]; 0.2 mM LU): 6.31 ng/mL
PGE2 release % compared with control ([3]; 0.2 mM LU): 2%
PGE2 release on exposure to PMA (in words) ([3]; doses of 0.2 mM and 0.04 mM): clear reduction in PGE2 release
Inhibition of the elastase activity (in words) ([4]; doses of 200 μM and 40 μM): clear inhibition of the elastase activity

Structure (SMILES): O=c1c(O)c(-c2ccc(O)c(O)c2)oc2cc(O)cc(O)c12 [Quercetin, 3,3′,4′,5,7-pentahydroxyflavone]
antioxidant activity [5]: greatest activity amongst the structures investigated

— patent US9044409B2, “Use of chromen-4-one derivatives” (Merck Patent GmbH, priority 2003, dated 2015)
